Literature values as cited in patent US5670663A (priority 1996, dated 1997).

Assays:
8A10 = details: monoclonal antibody 8A10
31-15 = details: antibody printed 31-15
3C6 = details: monoclonal antibody 3C6

Structure (SMILES): CC(=O)O[C@@]12CO[C@@H]1C[C@H](O)[C@@]1(C)C(=O)[C@H](O)C3=C(C)[C@@H](O)C[C@@](O)([C@@H](OC(=O)c4ccccc4)[C@H]21)C3(C)C [10-deacetylbaccatin III]
- cross reactivity with 8A10 (8A10): cross reacts

Structure (SMILES): C/C=C(\C)C(=O)N[C@@H](c1ccccc1)[C@@H](O)C(=O)O[C@H]1C[C@@]2(O)[C@@H](OC(=O)c3ccccc3)[C@@H]3[C@]4(OC(C)=O)CO[C@@H]4C[C@H](O)[C@@]3(C)C(=O)[C@H](OC(C)=O)C(=C1C)C2(C)C [Cephalomannine]
- cross reactivity with 8A10 (8A10): cross reacts

Structure (SMILES): CC(=O)O[C@H]1C(=O)[C@@]2(C)[C@H]([C@H](OC(=O)c3ccccc3)[C@]3(O)C[C@H](O)C(C)=C1C3(C)C)[C@]1(OC(C)=O)CO[C@@H]1C[C@@H]2O [baccatin III]
- cross reactivity with 8A10 (8A10): cross reacts
- relative affinity of antibody for baccatin III and its 7-epi isomer baccatin V (31-15): binds with equal affinity

Structure (SMILES): CC(=O)O[C@H]1C(=O)[C@]2(C)[C@H](O)C[C@H]3OC[C@@]3(OC(C)=O)[C@H]2[C@H](OC(=O)c2ccccc2)[C@]2(O)C[C@H](O)C(C)=C1C2(C)C [baccatin V]
- relative affinity of antibody for baccatin III and its 7-epi isomer baccatin V (31-15): binds with equal affinity

Structure (SMILES): CC(=O)O[C@H]1C(=O)[C@@]2(C)[C@H]([C@H](OC(=O)c3ccccc3)[C@]3(O)C[C@H](OC(=O)[C@H](O)[C@@H](NC(=O)c4ccccc4)c4ccccc4)C(C)=C1C3(C)C)[C@]1(OC(C)=O)CO[C@@H]1C[C@@H]2O [paclitaxel]
- cross reactivity with 8A10 (8A10): cross reacts
- reactivity with 3C6 (3C6): specifically reactive
- activity against breast, lung and other cancers (cancer; breast, lung and other cancers): shown activity
- antitumor activity (cancer; general statement): significant antitumor activity
